According to patent US8840866B2, “Styrylpyridine derivatives and their use for binding and imaging amyloid plaques” (The Trustees of the University of Pennsylvania, priority 2006, dated 2014):

Test: Organ distribution in normal ICR mice after iv injection of radiolabeled tracer
Assay type: in vivo
Settings: [125I]-labeled tracer
Protocol: The mice (n=3 for each time point) were sacrificed by cervical dislocation at designated time-points post injection. The organs of interest were removed and weighed, and the radioactivity was counted with an automatic gamma counter. The percentage dose per organ was calculated by a comparison of the tissue counts to suitably diluted aliquots of the injected material. The total activity of the blood was calculated under the assumption that it is 7% of the total body weight. The % dose/g of samples was calculated by comparing the sample counts with the count of the diluted initial dose.

Compound	Biodistribution: Blood (2 min)	Biodistribution: Brain (2 min)	Biodistribution: Heart (2 min)	Biodistribution: Kidney (2 min)	Biodistribution: Liver (2 min)	Biodistribution: Lung (2 min)	Biodistribution: Muscle (2 min)	Biodistribution: Skin (2 min)	Biodistribution: Spleen (2 min)	Biodistribution: Thyroid (2 min)	Biodistribution: Blood (30 min)	Biodistribution: Brain (30 min)	Biodistribution: Heart (30 min)	Biodistribution: Kidney (30 min)	Biodistribution: Liver (30 min)	Biodistribution: Lung (30 min)	Biodistribution: Muscle (30 min)	Biodistribution: Skin (30 min)	Biodistribution: Spleen (30 min)	Biodistribution: Thyroid (30 min)	also measured
CNc1ccc(/C=C/c2cnc(OCCO)c(I)c2)cc1 [[^125I]16b, (E)-[5-Iodo-6-(2-hydroxyethoxy)pyridin-3-yl]-2-(4-methylaminophenyl)-ethylene]	4.14 ± 0.41 % dose/g	8.04 ± 0.82 % dose/g	7.16 ± 1.16 % dose/g	11.51 ± 1.48 % dose/g	20.84 ± 2.38 % dose/g	7.43 ± 1.21 % dose/g	1.15 ± 0.38 % dose/g	0.95 ± 0.09 % dose/g	4.08 ± 0.68 % dose/g	6.31 ± 1.59 % dose/g	3.08 ± 0.35 % dose/g	0.88 ± 0.30 % dose/g	1.50 ± 0.18 % dose/g	3.73 ± 0.75 % dose/g	12.57 ± 3.03 % dose/g	2.67 ± 0.46 % dose/g	0.91 ± 0.06 % dose/g	1.86 ± 0.50 % dose/g	1.34 ± 0.29 % dose/g	17.23 ± 14.23 % dose/g	Biodistribution: Blood (1 hr): 1.81 ± 0.56 % dose/g; Biodistribution: Brain (1 hr): 0.26 ± 0.03 % dose/g; Biodistribution: Heart (1 hr): 0.88 ± 0.30 % dose/g; Biodistribution: Kidney (1 hr): 2.16 ± 0.08 % dose/g; Biodistribution: Liver (1 hr): 5.62 ± 0.68 % dose/g; Biodistribution: Lung (1 hr): 1.76 ± 0.32 % dose/g; Biodistribution: Muscle (1 hr): 0.42 ± 0.08 % dose/g; Biodistribution: Skin (1 hr): 1.29 ± 0.51 % dose/g; Biodistribution: Spleen (1 hr): 0.87 ± 0.37 % dose/g; Biodistribution: Thyroid (1 hr): 36.69 ± 37.17 % dose/g; Biodistribution: Blood (2 hr): 1.96 ± 0.14 % dose/g; Biodistribution: Brain (2 hr): 0.15 ± 0.02 % dose/g; Biodistribution: Heart (2 hr): 0.76 ± 0.03 % dose/g; Biodistribution: Kidney (2 hr): 1.53 ± 0.20 % dose/g; Biodistribution: Liver (2 hr): 3.41 ± 0.20 % dose/g; Biodistribution: Lung (2 hr): 1.58 ± 0.10 % dose/g; Biodistribution: Muscle (2 hr): 0.38 ± 0.02 % dose/g; Biodistribution: Skin (2 hr): 1.43 ± 0.10 % dose/g; Biodistribution: Spleen (2 hr): 1.08 ± 0.15 % dose/g; Biodistribution: Thyroid (2 hr): 99.88 ± 69.45 % dose/g
CN(C)c1ccc(/C=C/c2cnc(OCCO)c(I)c2)cc1 [[^125I]16a, (E)-[5-Iodo-6-(2-hydroxyethoxy)pyridin-3-yl]-2-(4-dimethylaminophenyl)-ethylene]	2.71 ± 0.07 % dose/g	5.43 ± 0.85 % dose/g	10.24 ± 0.45 % dose/g	14.25 ± 1.98 % dose/g	19.12 ± 2.68 % dose/g	9.41 ± 0.56 % dose/g	0.71 ± 0.46 % dose/g	0.46 ± 0.13 % dose/g	4.40 ± 1.89 % dose/g	4.15 ± 0.43 % dose/g	2.24 ± 0.38 % dose/g	3.56 ± 0.32 % dose/g	1.93 ± 0.27 % dose/g	4.19 ± 0.45 % dose/g	12.38 ± 1.29 % dose/g	3.02 ± 0.38 % dose/g	1.05 ± 0.20 % dose/g	1.18 ± 0.26 % dose/g	1.94 ± 0.19 % dose/g	11.21 ± 7.88 % dose/g	Biodistribution: Blood (1 hr): 2.18 ± 0.66 % dose/g; Biodistribution: Brain (1 hr): 1.32 ± 0.00 % dose/g; Biodistribution: Heart (1 hr): 1.12 ± 0.02 % dose/g; Biodistribution: Kidney (1 hr): 2.49 ± 0.33 % dose/g; Biodistribution: Liver (1 hr): 6.22 ± 0.96 % dose/g; Biodistribution: Lung (1 hr): 1.98 ± 0.21 % dose/g; Biodistribution: Muscle (1 hr): 0.55 ± 0.03 % dose/g; Biodistribution: Skin (1 hr): 1.16 ± 0.00 % dose/g; Biodistribution: Spleen (1 hr): 1.32 ± 0.10 % dose/g; Biodistribution: Thyroid (1 hr): 59.13 ± 6.26 % dose/g; Biodistribution: Blood (2 hr): 1.01 ± 0.02 % dose/g; Biodistribution: Brain (2 hr): 0.46 ± 0.05 % dose/g; Biodistribution: Heart (2 hr): 0.62 ± 0.12 % dose/g; Biodistribution: Kidney (2 hr): 1.48 ± 0.20 % dose/g; Biodistribution: Liver (2 hr): 4.87 ± 0.46 % dose/g; Biodistribution: Lung (2 hr): 1.00 ± 0.15 % dose/g; Biodistribution: Muscle (2 hr): 0.22 ± 0.04 % dose/g; Biodistribution: Skin (2 hr): 0.40 ± 0.05 % dose/g; Biodistribution: Spleen (2 hr): 0.80 ± 0.11 % dose/g; Biodistribution: Thyroid (2 hr): 24.81 ± 0.62 % dose/g
CN(C)c1ccc(/C=C/c2cnc(OCCOCCOCCF)c(I)c2)cc1 [[^125I]13a, (E)-(5-Iodo-6-{2-[2-(2-fluoroethoxy)ethoxy]ethoxy}pyridin-3-yl)-2-(4-dimethylaminophenyl)-ethylene]	2.70 ± 0.58 % dose/g	4.03 ± 0.43 % dose/g	12.76 ± 1.24 % dose/g	16.62 ± 1.96 % dose/g	22.15 ± 4.34 % dose/g	10.08 ± 2.15 % dose/g	0.90 ± 0.20 % dose/g	0.54 ± 0.05 % dose/g	4.47 ± 1.28 % dose/g	3.89 ± 0.67 % dose/g	2.05 ± 0.18 % dose/g	1.93 ± 0.18 % dose/g	1.63 ± 0.03 % dose/g	3.32 ± 0.11 % dose/g	9.54 ± 1.30 % dose/g	2.50 ± 0.14 % dose/g	1.00 ± 0.08 % dose/g	1.47 ± 0.26 % dose/g	1.42 ± 0.05 % dose/g	16.23 ± 11.75 % dose/g	Biodistribution: Blood (1 hr): 1.65 ± 0.45 % dose/g; Biodistribution: Brain (1 hr): 0.68 ± 0.17 % dose/g; Biodistribution: Heart (1 hr): 0.97 ± 0.16 % dose/g; Biodistribution: Kidney (1 hr): 2.30 ± 0.54 % dose/g; Biodistribution: Liver (1 hr): 5.34 ± 2.22 % dose/g; Biodistribution: Lung (1 hr): 1.62 ± 0.46 % dose/g; Biodistribution: Muscle (1 hr): 0.59 ± 0.13 % dose/g; Biodistribution: Skin (1 hr): 1.59 ± 0.68 % dose/g; Biodistribution: Spleen (1 hr): 0.99 ± 0.47 % dose/g; Biodistribution: Thyroid (1 hr): 24.19 ± 8.26 % dose/g; Biodistribution: Blood (2 hr): 1.45 ± 0.41 % dose/g; Biodistribution: Brain (2 hr): 0.26 ± 0.04 % dose/g; Biodistribution: Heart (2 hr): 0.73 ± 0.17 % dose/g; Biodistribution: Kidney (2 hr): 1.71 ± 0.24 % dose/g; Biodistribution: Liver (2 hr): 5.62 ± 1.31 % dose/g; Biodistribution: Lung (2 hr): 1.33 ± 0.39 % dose/g; Biodistribution: Muscle (2 hr): 0.53 ± 0.08 % dose/g; Biodistribution: Skin (2 hr): 1.23 ± 0.41 % dose/g; Biodistribution: Spleen (2 hr): 0.79 ± 0.27 % dose/g; Biodistribution: Thyroid (2 hr): 60.76 ± 6.09 % dose/g
